# Data reported in patent US9216964B2, “Hedgehog pathway modulators” (Novartis AG, priority 2008, dated 2015).
# Like-named read-outs stand apart in the source and are kept apart here.
# System: hedgehog signaling pathway
# Test: Gli-Luc Reporter Assay for Hh Pathway Inhibition (TMHh-12 cells, pTA-8×Gli-Luc reporter)
# Type: cell-based, Mouse
# Experimental: Compounds of the present invention are assayed to evaluate their capacity to inhibit the hedgehog signaling pathway.
# Gli-Luc Reporter Assay for Hh Pathway Inhibition
# Mouse TM3 cells (obtained from American Type Culture Collection, ATCC, Manassas, Va.) are cultured in DMEM/F12 medium (Gibco/Invitrogen, Carlsbad, Calif.) supplemented with 5% heat inactivated horse serum and 2.5% FBS (Gibco/Invitrogen, Carlsbad, Calif.), 50 unit/mL penicillin and 50 μg/mL of streptomycin (Gibco/Invitrogen, Carlsbad, Calif.) at […] with 5% CO2 in air atmosphere. TM3 cells were transfected with pTA-8×Gli-Luc reporter plasmid. A stably transfected clone termed TMHh-12 was selected. […] To evaluate the IC50s of the antagonists, 8000 TMHh-12 cells were plated into each wells in 384-well plates with 50% DMEM/F12 medium supplemented with 2% FBS. After 12 hours, Hh pathway is activated by adding recombinant mouse Shh protein (expressed in E. coli, 8 μg/mL) or by adding Smo agonists. The testing compounds are added into plates with different concentrations. After 48 hours, the firefly luciferase luciferase activities are assayed with the Bright-Glo™ Luciferase Assay System (Promega, Madison, Wis.). The IC50 is measured when the effect of the compound reduces the luminescence signal by 50%. Toxicity of these compounds are evaluated in TM3 cells using CellTiter Glo assays or by TM3-Luc cell line (a TM3 cell stably transfected with a constitutive luciferase expression vector).
# [1] = Mus musculus, TMHh12, Ag1.5 1 nM, read-out: Hedgehog Inhibition IC50 (nM) (Ag1.5 1 nM)
# [2] = Mus musculus, TMHh12, enzymatic and cellular assays for the inhibition of hedgehog signaling pathways, read-out: IC50 Ranges
smiles,measurement,setting,value
Cc1ccc(Nc2cccc3c2CCN(S(C)(=O)=O)C3)cc1-c1cc2ccccc2cn1 [Compound 229],IC50,[1],0.3 nM
same,IC50,[2],0.001 to 1 nM
Cc1ccc(-c2cc(Nc3cccc4c3CCN(C[C@H](O)CO)C4)ccc2C)nn1 [Compound 209],IC50,[2],100 to 1000 nM
CNC(=O)c1ccc(Nc2cccc3c2CCN(S(C)(=O)=O)C3)cc1-c1ccc(C#N)cc1 [Compound 180],IC50,[2],100 to 1000 nM
Cc1ccc(Nc2cccc3c2CCN(S(C)(=O)=O)C3)cc1-c1ccc(C(=O)NCC(C)O)cc1 (stereo not shown) [Compound 148],IC50,[2],100 to 1000 nM
Cc1ccc(Nc2ncnc3c2CCN(S(=O)(=O)C(C)C)C3)cc1-c1ccc(F)cn1 [Compound 300],IC50,[2],0.001 to 1 nM
Cc1ccc(-c2cc(Nc3cccc4c3CCN(C[C@H](O)CO)C4)ccc2C)nc1 [Compound 210],IC50,[2],1 to 10 nM
Cc1ccc(Nc2cccc3c2CCN(S(C)(=O)=O)C3)cc1-c1cnc(N(C)C)nc1 [Compound 124],IC50,[1],135 nM
same,IC50,[2],100 to 1000 nM
Cc1ccc(Nc2cccc3c2CCN(S(C)(=O)=O)C3)cc1-c1ccc(C(C)(C)C)cc1 [Compound 113],IC50,[1],1030 nM
same,IC50,[2],1000 to 10000 nM
Cc1cc(C#N)ccc1-c1cc(Nc2cccc3c2CCN(S(C)(=O)=O)C3)ccc1C [Compound 163],IC50,[1],47 nM
same,IC50,[2],10 to 100 nM
CS(=O)(=O)CCN1CCc2c(cccc2Nc2ccc(Cl)c(-c3ccc(F)cn3)n2)C1 [Compound 302],IC50,[2],10 to 100 nM
Clc1ccc(Nc2cccc3c2CCN(c2nn[nH]n2)C3)cc1-c1ncc(-c2ccccc2)[nH]1 [Compound 87],IC50,[2],1 to 10 nM
CNC(=O)c1cccc(-c2cc(Nc3cccc4c3CCN(S(C)(=O)=O)C4)ccc2C)c1 [Compound 135],IC50,[1],4180 nM
same,IC50,[2],1000 to 10000 nM
Cc1ccc(Nc2cccc3c2CCN(S(C)(=O)=O)C3)cc1-c1nc2cc(F)ccc2[nH]1 [Compound 61],IC50,[2],0.001 to 1 nM
CCN1CCC(N2CCc3ccc(Nc4ccc(Cl)c(-c5nc(-c6ccccc6)c[nH]5)c4)cc3C2)CC1 [Compound 347],IC50,[2],10 to 100 nM
Cc1ccc(Nc2ncnc3c2CCN(S(C)(=O)=O)C3)cc1-c1ccc(F)cn1 [Compound 298],IC50,[2],10 to 100 nM
COc1ccc(-c2cc(Nc3cccc4c3CCN(C3CS(=O)(=O)C3)C4)ccc2C)nn1 [Compound 276],IC50,[1],9.8 nM
same,IC50,[2],1 to 10 nM
Cc1ccc(Nc2cccc3c2CCN(S(C)(=O)=O)C3)cc1-c1ccc(C(N)=O)cc1 [Compound 142],IC50,[2],100 to 1000 nM
Cc1ccc(Nc2cccc3c2CCN(C2CCS(=O)(=O)C2)C3)cc1-c1ncc(F)cc1F (stereo not shown) [Compound 326],IC50,[2],0.001 to 1 nM
Cc1ccc(Nc2cccc3c2CCN(S(C)(=O)=O)C3)cc1-c1cccc(C(=O)N2CCCC2)c1 [Compound 140],IC50,[1],2940 nM
same,IC50,[2],1000 to 10000 nM
CCS(=O)(=O)CCN1CCc2c(cccc2Nc2ccc(C)c(-c3ccc(F)cn3)c2)C1 [Compound 281],IC50,[2],1 to 10 nM
COc1ccc(-c2cc(Nc3cccc4c3CCN(C3CCS(=O)(=O)C3)C4)ccc2C)nn1 (stereo not shown) [Compound 256],IC50,[2],0.001 to 1 nM
COc1cnc(-c2cc(Nc3cccc4c3CCN(S(C)(=O)=O)C4)ccc2C)cn1 [Compound 190],IC50,[2],1 to 10 nM
Cc1ncc(Nc2cccc3c2CCN(S(C)(=O)=O)C3)cc1-c1ccc(F)cn1 [Compound 202],IC50,[2],10 to 100 nM
Cc1ccc(Nc2cccc3c2CCN(C2CCS(=O)(=O)CC2)C3)cc1-c1ncc(-c2cccnc2)[nH]1 [Compound 52],IC50,"enzymatic and cellular assays for the inhibition of hedgehog signaling pathways, read-out: IC50 Ranges",10 to 100 nM
Cc1ccc(Nc2ncnc3c2CCN(S(C)(=O)=O)C3)cc1C(=O)Nc1ccccc1 [Compound 301],IC50,[2],100 to 1000 nM
Cc1ccc(Nc2cccc3c2CCN(S(C)(=O)=O)C3)cc1-c1ccc(CNCCO)cc1 [Compound 158],IC50,[2],100 to 1000 nM
Cc1ccc(Nc2cccc3c2CCN(S(C)(=O)=O)C3)cc1-c1cccc(C#N)c1 [Compound 119],IC50,[2],10 to 100 nM
Cc1ccc(Nc2cccc3c2CCN(CCS(C)(=O)=O)C3)cc1-c1ccccn1 [Compound 262],IC50,[2],1 to 10 nM
CS(=O)(=O)N1CCc2c(cccc2Nc2cnc(Cl)c(-c3ccc(C#N)cc3)c2)C1 [Compound 175],IC50,[2],10 to 100 nM
OC[C@H](O)CN1CCc2c(cccc2Nc2ccc(Cl)c(-c3ncc(-c4ccccc4)[nH]3)c2)C1 [Compound 18],IC50,[2],0.001 to 1 nM
CS(=O)(=O)N1CCc2c(cccc2Nc2ccc(Cl)c(-c3ncc(-c4ccccc4)[nH]3)c2)C1 [Compound 4],IC50,[2],0.001 to 1 nM
Cc1ccc(Nc2cccc3c2CCN(S(C)(=O)=O)C3)cc1-c1ccc(C(C)C)cc1 [Compound 117],IC50,[2],100 to 1000 nM
CCOc1cnc(-c2cc(Nc3cccc4c3CCN(S(C)(=O)=O)C4)ccc2C)cn1 [Compound 314],IC50,[2],0.001 to 1 nM
Cc1ccc(Nc2cccc3c2CCN(S(C)(=O)=O)C3)cc1OCc1ccccn1 [Compound 215],IC50,[2],10 to 100 nM
Cc1ccc(Nc2nccc3c2CCN(C2CCS(=O)(=O)CC2)C3)cc1-c1cc2ccccc2cn1 [Compound 344],IC50,[2],0.001 to 1 nM
COc1cnc(-c2cc(Nc3cccc4c3CCN(C3CCS(=O)(=O)C3)C4)ccc2C)cn1 (stereo not shown) [Compound 266],IC50,[2],1 to 10 nM
Clc1ccc(Nc2cccc3c2CCN(C2CCCCCC2)C3)cc1-c1ncc(-c2ccccc2)[nH]1 [Compound 30],IC50,[1],1.2 nM
same,IC50,[2],1 to 10 nM
COc1cccc(-c2cc(Nc3cccc4c3CCN(S(C)(=O)=O)C4)ccc2C)n1 [Compound 165],IC50,[2],100 to 1000 nM
Cc1ccc(Nc2cccc3c2CCN(S(C)(=O)=O)C3)cc1Oc1ccccc1 [Compound 123],IC50,[1],738 nM
same,IC50,[2],100 to 1000 nM
Cc1ccc(Nc2cccc3c2CCN(S(C)(=O)=O)C3)cc1-c1ncc(-c2ccc(CN(C)C)cc2)[nH]1 [Compound 106],IC50,[2],1 to 10 nM
Cc1ccc(Nc2cccc3c2CCN(C(=O)C(C)(CO)CO)C3)cc1-c1nc2ccccc2[nH]1 [Compound 70],IC50,[2],0.001 to 1 nM
Cc1ccc(Nc2cccc3c2CCN(S(C)(=O)=O)C3)cc1-c1cnc(C#N)cn1 [Compound 208],IC50,[2],100 to 1000 nM
Cc1ccc(-c2cc(Nc3cccc4c3CCN(CC(=O)N(C)C)C4)ccc2C)nc1 [Compound 233],IC50,[2],1 to 10 nM
Cc1ccc(Nc2cccc3c2CCN(CC(F)(F)CO)C3)cc1-c1ccc(C#N)cn1 [Compound 211],IC50,[2],0.001 to 1 nM
Cc1ccc(Nc2cccc3c2CCN(S(C)(=O)=O)C3)cc1-c1ccc(N(C)C)nn1 [Compound 254],IC50,[2],1 to 10 nM
Cc1ccc(Nc2cccc3c2CCN(CC(C)(C)F)C3)cc1C(=O)Nc1ccccc1 [Compound 221],IC50,[2],1 to 10 nM
Cc1ccc(Nc2cccc3c2CCN(S(C)(=O)=O)C3)cc1-c1ncccc1F [Compound 227],IC50,[2],0.001 to 1 nM
Cc1cc(C#N)ccc1-c1cccc(Nc2cccc3c2CCN(S(C)(=O)=O)C3)c1 [Compound 168],IC50,[2],100 to 1000 nM
Cc1ccc(Nc2cccc3c2CCN(S(C)(=O)=O)C3)cc1-c1cc(F)ccn1 [Compound 217],IC50,[2],1 to 10 nM
O=C(O)C(F)(F)CN1CCc2c(cccc2Nc2ccc(Cl)c(-c3nc(-c4ccccc4)c[nH]3)c2)C1 [Compound 64],IC50,[2],1 to 10 nM
COc1ccc(-c2cc(Nc3cccc4c3CCN(S(C)(=O)=O)C4)ccc2C)cc1 [Compound 99],IC50,[2],10 to 100 nM
Cc1ccc(Nc2cccc3c2CCN(S(=O)(=O)CCN(C)C)C3)cc1-c1ncccc1F [Compound 289],IC50,[2],0.001 to 1 nM
Cc1ccc(Nc2ncnc3c2CCN(C2CCS(=O)(=O)CC2)C3)cc1-c1cc2ccccc2cn1 [Compound 342],IC50,[2],1 to 10 nM
COc1ccc(-c2cc(Nc3cccc4c3CCN(S(C)(=O)=O)C4)ccc2C)cn1 [Compound 98],IC50,[2],10 to 100 nM
CS(=O)(=O)N1CCc2c(cccc2Nc2ccc(CO)c(-c3ccc(C#N)cc3)c2)C1 [Compound 178],IC50,[2],100 to 1000 nM
Cc1ccc(Nc2cccc3c2CCN(S(C)(=O)=O)C3)cc1-c1cc2ccccc2[nH]1 [Compound 151],IC50,[2],10 to 100 nM
C[C@H](O)C(=O)N1CCc2c(cccc2Nc2ccc(Cl)c(-c3ncc(-c4ccccc4)[nH]3)c2)C1 [Compound 20],IC50,[2],1 to 10 nM
Cc1ccc(Nc2cccc3c2CCN(S(C)(=O)=O)C3)cc1-c1ncc(-c2cccnc2)[nH]1 [Compound 60],IC50,[2],0.001 to 1 nM
Cc1ccc(Nc2cccc3c2CCN(S(C)(=O)=O)C3)cc1-c1ccc(CC#N)cc1 [Compound 139],IC50,[1],101 nM
same,IC50,[2],100 to 1000 nM
CCS(=O)(=O)CCN1CCc2c(cccc2Nc2ccc(C)c(-c3ccc(C)cn3)c2)C1 [Compound 261],IC50,[2],0.001 to 1 nM
